Results from ChEMBL document CHEMBL1201862, “PubChem BioAssay data set” (2004).
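Compound exposure: 48 hours, 5 concentrations, 96-well plates. GI50 marks 50% less growth.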 The source made the active and inactive calls. No stated cut-off is given here; in the data, active = GI50 up to about 1.1 µM and inactive = higher.

What was measured:
Assay in all cases: DTP human tumour cell line panel, 48 h
OVCAR-4 = test system: OVCAR-4
UO-31 = test system: UO-31
SF-268 = test system: SF-268
SW-620 = test system: SW-620
SK-MEL-28 = test system: SK-MEL-28
OVCAR-8 = test system: OVCAR-8
M14 = test system: M14
ACHN = test system: ACHN
U-251 = test system: U-251
786-0 = test system: 786-0
NCI-H460 = test system: NCI-H460
NCI-H522 = test system: NCI-H522
MDA-MB-435 = test system: MDA-MB-435
T47D = test system: T47D
Hs-578T = test system: Hs-578T
DU-145 = test system: DU-145
NCI-H226 = test system: NCI-H226
UACC-62 = test system: UACC-62
KM12 = test system: KM12
UACC-257 = test system: UACC-257
LOX IMVI = test system: LOX IMVI
IGROV-1 = test system: IGROV-1
OVCAR-3 = test system: OVCAR-3
SNB-75 = test system: SNB-75
A549 = test system: A549
SF-295 = test system: SF-295
RXF 393 = test system: RXF 393
SK-MEL-2 = test system: SK-MEL-2
NCI/ADR-RES = test system: NCI/ADR-RES
SK-MEL-5 = test system: SK-MEL-5
MDA-MB-231 = test system: MDA-MB-231
EKVX = test system: EKVX
HCT-116 = test system: HCT-116
SN12C = test system: SN12C
Malme-3M = test system: Malme-3M
TK-10 = test system: TK-10
HCT-15 = test system: HCT-15
SK-OV-3 = test system: SK-OV-3
HT-29 = test system: HT-29
COLO 205 = test system: COLO 205
SNB-19 = test system: SNB-19
OVCAR-5 = test system: OVCAR-5
HOP-62 = test system: HOP-62
CAKI-1 = test system: CAKI-1
NCI-H23 = test system: NCI-H23
SF-539 = test system: SF-539
MCF7 = test system: MCF7
SR = test system: SR
RPMI-8226 = test system: RPMI-8226
MDA-N = test system: MDA-N
PC-3 = test system: PC-3
HCC 2998 = test system: HCC 2998
HL-60 = test system: HL-60
CCRF-CEM = test system: CCRF-CEM
HOP-92 = test system: HOP-92
K562 = test system: K562
MOLT-4 = test system: MOLT-4

CCCC(=O)/C=C/S/C=C/C(=O)CCC
GI50 (OVCAR-4): 4.42 µM (inactive)
GI50 (UO-31): 4.13 µM (inactive)
GI50 (SF-268): 26.9 µM (inactive)
GI50 (SW-620): 2.28 µM (inactive)
GI50 (SK-MEL-28): 3.96 µM (inactive)
GI50 (OVCAR-8): 2.65 µM (inactive)
GI50 (M14): 3.28 µM (inactive)
GI50 (ACHN): 2.7 µM (inactive)
GI50 (U-251): 14.3 µM (inactive)
GI50 (786-0): 2.1 µM (inactive)
GI50 (NCI-H460): 5.3 µM (inactive)
GI50 (NCI-H522): 1.71 µM (inactive)
GI50 (MDA-MB-435): 5.46 µM (inactive)
GI50 (T47D): 4.09 µM (inactive)
GI50 (Hs-578T): 4.67 µM (inactive)
GI50 (DU-145): 11.5 µM (inactive)
GI50 (NCI-H226): 3.72 µM (inactive)
GI50 (UACC-62): 12.2 µM (inactive)
GI50 (KM12): 15.3 µM (inactive)
GI50 (UACC-257): 2.27 µM (inactive)
GI50 (LOX IMVI): 2.38 µM (inactive)
GI50 (IGROV-1): 21.6 µM (inactive)
GI50 (OVCAR-3): 4.09 µM (inactive)
GI50 (SNB-75): 27.2 µM (inactive)
GI50 (A549): 28.3 µM (inactive)
GI50 (SF-295): 23.9 µM (inactive)
GI50 (RXF 393): 4.9 µM (inactive)
GI50 (SK-MEL-2): 27.5 µM (inactive)
GI50 (NCI/ADR-RES): 3.18 µM (inactive)
GI50 (SK-MEL-5): 4.26 µM (inactive)
GI50 (MDA-MB-231): 4.84 µM (inactive)
GI50 (EKVX): 3.29 µM (inactive)
GI50 (HCT-116): 1.65 µM (inactive)
GI50 (SN12C): 13.2 µM (inactive)
GI50 (Malme-3M): 7.28 µM (inactive)
GI50 (TK-10): 2.51 µM (inactive)
GI50 (HCT-15): 2.36 µM
GI50 (SK-OV-3): 34.4 µM (inactive)
GI50 (HT-29): 3.26 µM (inactive)
GI50 (COLO 205): 2.23 µM (inactive)
GI50 (SNB-19): 21.8 µM (inactive)
GI50 (OVCAR-5): 3.41 µM (inactive)
GI50 (HOP-62): 11.4 µM (inactive)
GI50 (CAKI-1): 2.86 µM (inactive)
GI50 (NCI-H23): 2.84 µM (inactive)
GI50 (SF-539): 10.7 µM (inactive)
GI50 (MCF7): 28.2 µM (inactive)

CCCCCCCCCCCCCCCCCCOC[C@H](COP(=O)(O)O[C@H]1[C@H](O)[C@@H](O)[C@H](O)C[C@H]1O)OC
GI50 (SR): 12.1 µM (inactive)
GI50 (RPMI-8226): 11.8 µM (inactive)
GI50 (SNB-75): 13 µM (inactive)

COc1ccc2c(c[n+](C)c3c4cc5c(cc4ccc23)OCO5)c1OC
GI50 (MDA-N): 16.7 µM (inactive)
GI50 (MDA-MB-435): 19.3 µM (inactive)
GI50 (T47D): > 100 µM (inactive)
GI50 (Hs-578T): 80.4 µM (inactive)
GI50 (DU-145): > 100 µM (inactive)
GI50 (RXF 393): > 100 µM (inactive)
GI50 (NCI/ADR-RES): 34.8 µM (inactive)
GI50 (MDA-MB-231): > 100 µM (inactive)
GI50 (PC-3): 41.7 µM (inactive)
GI50 (MCF7): 9.55 µM (inactive)

CO/C(=N\N=C\c1ccc(Cl)c(Cl)c1)c1ccncc1
GI50 (MDA-N): > 10 µM (inactive)
GI50 (UO-31): > 10 µM (inactive)
GI50 (SF-268): > 10 µM (inactive)
GI50 (HCC 2998): > 10 µM (inactive)
GI50 (SR): 2.75 µM (inactive)
GI50 (SW-620): > 10 µM (inactive)
GI50 (SK-MEL-28): > 10 µM (inactive)
GI50 (OVCAR-8): > 10 µM (inactive)
GI50 (M14): > 10 µM (inactive)
GI50 (ACHN): 4.99 µM (inactive)
GI50 (RPMI-8226): > 10 µM (inactive)
GI50 (U-251): > 10 µM (inactive)
GI50 (HL-60): > 10 µM (inactive)
GI50 (786-0): > 10 µM (inactive)
GI50 (NCI-H460): > 10 µM (inactive)
GI50 (CCRF-CEM): > 10 µM (inactive)
GI50 (T47D): > 10 µM (inactive)
GI50 (NCI-H226): > 10 µM (inactive)
GI50 (KM12): > 10 µM (inactive)
GI50 (LOX IMVI): > 10 µM (inactive)
GI50 (IGROV-1): > 10 µM (inactive)
GI50 (OVCAR-3): > 10 µM (inactive)
GI50 (SNB-75): 9.86 µM (inactive)
GI50 (A549): > 10 µM (inactive)
GI50 (SF-295): > 10 µM (inactive)
GI50 (RXF 393): > 10 µM (inactive)
GI50 (SK-MEL-2): > 10 µM (inactive)
GI50 (NCI/ADR-RES): > 10 µM (inactive)
GI50 (SK-MEL-5): > 10 µM (inactive)
GI50 (HCT-116): > 10 µM (inactive)
GI50 (SN12C): > 10 µM (inactive)
GI50 (Malme-3M): > 10 µM (inactive)
GI50 (TK-10): > 10 µM (inactive)
GI50 (HCT-15): > 10 µM
GI50 (HOP-92): 4.26 µM (inactive)
GI50 (SK-OV-3): > 10 µM (inactive)
GI50 (PC-3): > 10 µM (inactive)
GI50 (COLO 205): > 10 µM (inactive)
GI50 (SNB-19): > 10 µM (inactive)
GI50 (OVCAR-5): > 10 µM (inactive)
GI50 (HOP-62): > 10 µM (inactive)
GI50 (CAKI-1): > 10 µM (inactive)
GI50 (NCI-H23): > 10 µM (inactive)
GI50 (K562): > 10 µM (inactive)
GI50 (SF-539): > 10 µM (inactive)
GI50 (MCF7): > 10 µM (inactive)
GI50 (MOLT-4): > 10 µM (inactive)
